“Also recorded” adds a separate entry of the source.
What was measured:
[1] = test system: SARS-CoV-2 binding to Human Aortic Endothelial Cells (HAoEC); assay type: cell-based
[2] = test system: VE-Cadherin expression on sheared HAoEC; assay type: cell-based, human; conditions: 0.0005 μM
[3] = test system: sheared HAoEC; assay: Transwell permeability assay (FITC-Dextran) after SARS-CoV-2 infection; assay type: cell-based, human; conditions: 0.0005 μM; SARS-CoV-2 infection 24 hours; FIG. 5A
[4] = test system: SARS-CoV-2 binding to human colorectal epithelial cells (Caco-2); assay type: cell-based
[5] = test system: VE-Cadherin in endothelial cells; assay: SDS-PAGE and Western blot of VE-Cadherin after ex vivo infection assay; assay type: cell-based, human; conditions: healthy, infected and treated cells; 0.0005 μM
Procedure: Following the ex vivo infection assay, endothelial cells were lysed in RIPA buffer and stored at −20° C. until use. Samples were separated on a 10% SDS-PAGE gel. Following this, proteins were transferred onto a nitrocellulose membrane and blocked for 1 hour using 5% skimmed milk. The membrane was probed using anti-VE Cadherin primary antibody (Clone: F-8, Cat. No: sc-9989, 1:200, SantaCruz) and anti-GAPDH primary antibody (6000-4-1 mouse mAB, 1:2000, ProteinTech), overnight at 4° C. Anti-mouse IgG secondary antibodies (sc525405, 1:5000, SantaCruz) were used the following day. Proteins were detected using chemiluminescence.

[6] = molecular target: T1, Recombinant integrin αVβ3 (binding of SARS-CoV-2 spike protein) (Homo sapiens, UniProt P05106+P06756); assay: Fluorescent-based protein interaction assay, spike protein and αVβ3; conditions: FIG. 8
T1 construct: purchased BioTechne 3050-AV-050
T1 sequence (P06756 31-992 limits assumed): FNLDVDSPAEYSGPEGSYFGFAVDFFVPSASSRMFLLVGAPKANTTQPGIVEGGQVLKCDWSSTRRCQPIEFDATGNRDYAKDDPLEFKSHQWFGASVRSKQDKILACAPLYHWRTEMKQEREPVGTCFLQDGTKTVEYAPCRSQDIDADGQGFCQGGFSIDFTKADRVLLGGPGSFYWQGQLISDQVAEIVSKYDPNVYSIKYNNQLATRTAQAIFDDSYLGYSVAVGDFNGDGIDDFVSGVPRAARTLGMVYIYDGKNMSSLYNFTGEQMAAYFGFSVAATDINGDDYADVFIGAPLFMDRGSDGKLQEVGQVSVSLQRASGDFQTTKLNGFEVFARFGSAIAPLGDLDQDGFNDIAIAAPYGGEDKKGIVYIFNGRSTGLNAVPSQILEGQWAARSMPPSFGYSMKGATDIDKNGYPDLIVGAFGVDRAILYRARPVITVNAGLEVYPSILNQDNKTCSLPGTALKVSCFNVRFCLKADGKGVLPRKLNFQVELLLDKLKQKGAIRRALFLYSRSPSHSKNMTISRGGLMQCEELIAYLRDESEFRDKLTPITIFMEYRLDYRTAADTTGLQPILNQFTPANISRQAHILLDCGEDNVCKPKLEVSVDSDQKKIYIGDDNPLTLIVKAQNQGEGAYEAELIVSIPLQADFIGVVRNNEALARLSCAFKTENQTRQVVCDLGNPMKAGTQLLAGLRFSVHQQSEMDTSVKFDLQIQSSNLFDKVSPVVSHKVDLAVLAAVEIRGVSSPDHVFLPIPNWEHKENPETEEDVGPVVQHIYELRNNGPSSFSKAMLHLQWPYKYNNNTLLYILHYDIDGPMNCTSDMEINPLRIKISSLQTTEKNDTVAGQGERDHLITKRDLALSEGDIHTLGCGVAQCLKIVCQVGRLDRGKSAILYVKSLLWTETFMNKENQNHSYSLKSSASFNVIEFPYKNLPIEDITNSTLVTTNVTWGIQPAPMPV
T1 sequence (P05106 27-718 limits assumed): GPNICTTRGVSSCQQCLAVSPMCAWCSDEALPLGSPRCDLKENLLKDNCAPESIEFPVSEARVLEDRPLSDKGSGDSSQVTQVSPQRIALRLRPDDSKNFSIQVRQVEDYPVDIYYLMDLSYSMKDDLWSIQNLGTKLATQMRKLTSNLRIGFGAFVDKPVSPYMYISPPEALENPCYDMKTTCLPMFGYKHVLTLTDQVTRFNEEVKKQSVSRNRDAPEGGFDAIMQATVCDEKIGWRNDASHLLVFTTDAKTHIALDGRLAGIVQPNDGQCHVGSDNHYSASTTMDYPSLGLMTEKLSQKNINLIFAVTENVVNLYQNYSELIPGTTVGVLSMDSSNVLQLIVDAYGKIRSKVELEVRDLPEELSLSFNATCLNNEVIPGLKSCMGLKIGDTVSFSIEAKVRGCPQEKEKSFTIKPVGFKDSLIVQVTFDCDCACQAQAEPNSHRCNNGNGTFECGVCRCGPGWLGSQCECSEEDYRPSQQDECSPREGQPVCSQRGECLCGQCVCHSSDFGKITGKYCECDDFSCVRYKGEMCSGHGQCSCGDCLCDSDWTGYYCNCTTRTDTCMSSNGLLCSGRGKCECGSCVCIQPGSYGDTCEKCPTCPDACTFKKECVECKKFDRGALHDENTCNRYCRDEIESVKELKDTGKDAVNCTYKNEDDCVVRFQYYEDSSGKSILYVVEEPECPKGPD

| SMILES | SARS-CoV-2 binding to endothelial cells, dose response [1] | virus (SARS-CoV-2) attachment to human vascular endothelial cells [1] | VE-Cadherin surface expression (mean fluorescence), marker of barrier integrity [2] | internalisation of VE-Cadherin following SARS-CoV-2 infection [2] | endothelial barrier permeability (FITC-Dextran, 40 kDa) [3] | SARS-CoV-2 binding to human colorectal epithelial cells [4] | Total VE-Cadherin [5] | viral (SARS-CoV-2) attachment to human vascular endothelial cells [1] | recombinant spike protein binding to integrin αVβ3, comparison of GLPG0187 with Cilengitide [6] |
| --- | --- | --- | --- | --- | --- | --- | --- | --- | --- |
| CC(C)[C@H]1C(=O)N[C@@H](CCCN=C(N)N)C(=O)NCC(=O)N[C@@H](CC(=O)O)C(=O)N[C@H](Cc2ccccc2)C(=O)N1C [Cilengitide, cyclo(-RGDf(NMe)V-)] | in a dose-dependent manner; also recorded: significantly prevents both attachment to the host and disruption of barrier integrity; also recorded: Statistical significance was found between the no drug control and each Cilengitide treated group | dose dependently inhibits virus (SARS-CoV-2) attachment to human vascular endothelial cells | prevented VE-cadherin reduction during infection; also recorded: returning VE-cadherin levels back to uninfected levels; also recorded: re-established the barrier integrity; also recorded: barrier permeability was restored back to uninfected levels | internalisation of VE-Cadherin is prevented | limited the occurrence of barrier permeability; also recorded: restored after treating cells with Cilengitide | effectively reduces SARS-CoV-2 binding to human colorectal epithelial cells | Total VE-Cadherin remains consistent |  |  |
| COc1ccc(S(=O)(=O)N[C@@H](CNc2nc(C)nc(N3CCC(c4ccc5c(n4)NCCC5)CC3)c2C)C(=O)O)cc1 [GLPG0187] |  |  |  |  |  |  |  | failed to inhibit viral (SARS-CoV-2) attachment to human vascular endothelial cells | Cilengitide is significantly more effective |
| CNc1cccc(CCOc2ccc3c(c2)CN(CC(F)(F)F)C(=O)[C@H](CC(=O)O)C3)n1 [SB-273005] |  |  |  |  |  |  |  | failed to inhibit viral (SARS-CoV-2) attachment to human vascular endothelial cells; also recorded: unsuccessful at reducing SARS-CoV-2 binding to human endothelial cells |  |

From US20240082347A1, “TREATMENT OF CORONAVIRUS” (priority 2021, published 2024)
